Molecular target: T1, Prostacyclin Receptors (IP Receptors) of Human Thrombocyte Membranes (Homo sapiens, UniProt P43119)
T1 construct: Thrombocyte membranes are obtained by centrifuging 50 ml of human blood; tissue Maco Pharma, Langen (buffy coats); host or cells: human thrombocyte (platelet) membranes from human blood
Assay: Binding to prostacyclin receptors (IP receptors) of human thrombocyte membranes, 3H-Iloprost displacement
Settings: 3 nM 3H-Iloprost, 60 min, room temperature
Procedure: B-1. Studies of Binding to Prostacyclin Receptors (IP Receptors) of Human Thrombocyte Membranes
Thrombocyte membranes are obtained by centrifuging 50 ml of human blood (Buffy coats with CDP Stabilizer, from Maco Pharma, Langen) for 20 min at 160×g. Remove the supernatant (platelet-rich plasma, PRP) and then centrifuge again at 2000×g for 10 min at room temperature. Resuspend the sediment in 50 mM tris(hydroxymethyl)amino-methane, which has been adjusted to a pH of 7.4 with 1 N hydrochloric acid, and store at −20° C. overnight. On the next day, centrifuge the suspension at 80 000×g and 4° C. for 30 min. Discard the supernatant. Resuspend the sediment in 50 mM tris(hydroxy-methyl)aminomethane/hydrochloric acid, 0.25 mM ethylene diamine tetraacetic acid (EDTA), pH 7.4, and then centrifuge once again at 80 000×g and 4° C. for 30 min. Take up the membrane sediment in binding buffer (50 mM tris(hydroxymethyl)-aminomethane/hydrochloric acid, 5 mM magnesium chloride, pH 7.4) and store at −70° C. until the binding test.
For the binding test, incubate 3 nM ^3H-Iloprost (592 GBq/mmol, from AmershamBioscience) for 60 min with 300-1000 μg/ml of human thrombocyte membranes per charge (max. 0.2 ml) in the presence of the test substances at room temperature. After stopping, add cold binding buffer to the membranes and wash with 0.1% bovine serum albumin. After adding Ultima Gold Scintillator, quantify the radioactivity bound to the membranes using a scintillation counter. The nonspecific binding is defined as radioactivity in the presence of 1 μM Iloprost (from Cayman Chemical, Ann Arbor) and is as a rule <25% of the bound total radioactivity. The binding data (IC50 values) are determined using the program GraphPad Prism Version 3.02.

T1 sequence (P43119 whole entry): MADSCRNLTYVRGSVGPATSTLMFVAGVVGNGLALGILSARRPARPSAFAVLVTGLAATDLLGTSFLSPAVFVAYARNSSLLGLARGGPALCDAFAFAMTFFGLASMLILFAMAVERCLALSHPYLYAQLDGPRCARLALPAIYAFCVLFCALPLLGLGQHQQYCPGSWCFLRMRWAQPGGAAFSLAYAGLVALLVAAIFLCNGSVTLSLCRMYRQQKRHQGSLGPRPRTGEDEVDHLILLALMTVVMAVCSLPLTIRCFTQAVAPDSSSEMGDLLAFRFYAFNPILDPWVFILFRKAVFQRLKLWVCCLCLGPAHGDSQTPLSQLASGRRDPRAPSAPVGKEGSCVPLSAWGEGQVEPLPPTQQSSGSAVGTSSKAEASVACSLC

Row | IC50 [nM] | Structure (SMILES)
1 | 132 | CCCNC(=O)/C(C)=C/c1c(-c2ccccc2)oc2ncnc(O[C@H](C)CCCCC(=O)O)c12 [Example 21, (6R)-6-({5-[(1E)-2-methyl-3-oxo-3-(propylamino)prop-1-en-1-yl]-6-phenylfuro[2,3-d]pyrimidin-4-yl}oxy)heptanoic acid]
2 | 1050 | CCCC(=O)/C=C/c1c(-c2ccccc2)oc2ncnc(O[C@H](C)CCCCC(=O)O)c12 [Example 17]
3 | 13 | CCOC(=O)/C(C)=C/c1c(-c2ccccc2)oc2ncnc(O[C@H](C)CCCCC(=O)O)c12 [Example 16, (6R)-6-({5-[(1E)-3-ethoxy-2-methyl-3-oxoprop-1-en-1-yl]-6-phenylfuro[2,3-d]pyrimidin-4-yl}oxy)heptanoic acid]
4 | 545 | C=CCOC(=O)/C=C/c1c(-c2ccccc2)oc2ncnc(O[C@H](C)CCCCC(=O)O)c12 [Example 15]
